In experiment [1] the target is Ribosomal protein S6 kinase alpha-1 (Homo sapiens, UniProt Q15418). The conditions noted are these: at 10 µM.
Experiment [2] deals with T1, Serine/threonine-protein kinase TBK1 (Homo sapiens) (UniProt Q9UHD2).
T1 sequence (whole entry): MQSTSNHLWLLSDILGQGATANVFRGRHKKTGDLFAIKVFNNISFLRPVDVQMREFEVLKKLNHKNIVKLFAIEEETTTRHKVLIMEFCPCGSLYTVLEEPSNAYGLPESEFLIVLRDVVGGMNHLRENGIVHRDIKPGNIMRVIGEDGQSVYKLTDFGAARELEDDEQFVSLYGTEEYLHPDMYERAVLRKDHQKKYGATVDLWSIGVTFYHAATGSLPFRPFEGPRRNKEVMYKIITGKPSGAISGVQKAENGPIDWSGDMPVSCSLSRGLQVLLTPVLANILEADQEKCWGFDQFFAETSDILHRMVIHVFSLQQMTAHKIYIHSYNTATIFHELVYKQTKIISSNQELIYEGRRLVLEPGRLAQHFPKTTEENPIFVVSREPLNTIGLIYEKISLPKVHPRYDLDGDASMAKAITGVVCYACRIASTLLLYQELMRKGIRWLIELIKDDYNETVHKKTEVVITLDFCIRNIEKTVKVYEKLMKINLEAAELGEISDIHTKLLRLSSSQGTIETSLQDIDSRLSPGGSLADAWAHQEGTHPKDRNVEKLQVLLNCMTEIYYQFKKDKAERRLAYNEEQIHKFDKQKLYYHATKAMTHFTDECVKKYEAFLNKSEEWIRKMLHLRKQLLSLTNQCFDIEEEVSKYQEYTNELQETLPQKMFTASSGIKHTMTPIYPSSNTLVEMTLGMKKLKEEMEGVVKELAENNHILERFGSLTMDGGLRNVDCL
In words: Selectivity interaction (KinomeScan (DiscoverX)) EUB0000607a TBK1. The conditions noted are these: at 10 µM.

Experiment [3] deals with MAP kinase-interacting serine/threonine-protein kinase 2 (Homo sapiens, UniProt Q9HBH9). The conditions noted are these: at 10 µM.
Sequence of MAP kinase-interacting serine/threonine-protein kinase 2 (Q9HBH9 whole entry, looked up, the tested form may be a part): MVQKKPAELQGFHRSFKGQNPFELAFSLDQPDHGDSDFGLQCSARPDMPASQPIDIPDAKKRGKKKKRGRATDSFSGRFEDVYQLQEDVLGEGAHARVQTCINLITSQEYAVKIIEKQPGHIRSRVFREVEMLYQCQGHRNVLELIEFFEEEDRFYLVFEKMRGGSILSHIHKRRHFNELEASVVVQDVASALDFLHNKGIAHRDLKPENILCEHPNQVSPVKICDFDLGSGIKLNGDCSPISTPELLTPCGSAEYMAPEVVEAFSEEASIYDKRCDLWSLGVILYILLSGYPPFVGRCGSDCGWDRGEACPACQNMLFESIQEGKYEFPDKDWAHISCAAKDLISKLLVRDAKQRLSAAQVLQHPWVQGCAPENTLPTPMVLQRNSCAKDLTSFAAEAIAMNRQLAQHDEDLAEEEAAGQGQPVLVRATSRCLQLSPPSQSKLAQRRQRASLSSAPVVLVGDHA
For experiment [4], the target named is T2, Phosphatidylinositol 3-kinase C2 domain-containing subunit gamma (Homo sapiens) (UniProt O75747).
T2 sequence (whole entry): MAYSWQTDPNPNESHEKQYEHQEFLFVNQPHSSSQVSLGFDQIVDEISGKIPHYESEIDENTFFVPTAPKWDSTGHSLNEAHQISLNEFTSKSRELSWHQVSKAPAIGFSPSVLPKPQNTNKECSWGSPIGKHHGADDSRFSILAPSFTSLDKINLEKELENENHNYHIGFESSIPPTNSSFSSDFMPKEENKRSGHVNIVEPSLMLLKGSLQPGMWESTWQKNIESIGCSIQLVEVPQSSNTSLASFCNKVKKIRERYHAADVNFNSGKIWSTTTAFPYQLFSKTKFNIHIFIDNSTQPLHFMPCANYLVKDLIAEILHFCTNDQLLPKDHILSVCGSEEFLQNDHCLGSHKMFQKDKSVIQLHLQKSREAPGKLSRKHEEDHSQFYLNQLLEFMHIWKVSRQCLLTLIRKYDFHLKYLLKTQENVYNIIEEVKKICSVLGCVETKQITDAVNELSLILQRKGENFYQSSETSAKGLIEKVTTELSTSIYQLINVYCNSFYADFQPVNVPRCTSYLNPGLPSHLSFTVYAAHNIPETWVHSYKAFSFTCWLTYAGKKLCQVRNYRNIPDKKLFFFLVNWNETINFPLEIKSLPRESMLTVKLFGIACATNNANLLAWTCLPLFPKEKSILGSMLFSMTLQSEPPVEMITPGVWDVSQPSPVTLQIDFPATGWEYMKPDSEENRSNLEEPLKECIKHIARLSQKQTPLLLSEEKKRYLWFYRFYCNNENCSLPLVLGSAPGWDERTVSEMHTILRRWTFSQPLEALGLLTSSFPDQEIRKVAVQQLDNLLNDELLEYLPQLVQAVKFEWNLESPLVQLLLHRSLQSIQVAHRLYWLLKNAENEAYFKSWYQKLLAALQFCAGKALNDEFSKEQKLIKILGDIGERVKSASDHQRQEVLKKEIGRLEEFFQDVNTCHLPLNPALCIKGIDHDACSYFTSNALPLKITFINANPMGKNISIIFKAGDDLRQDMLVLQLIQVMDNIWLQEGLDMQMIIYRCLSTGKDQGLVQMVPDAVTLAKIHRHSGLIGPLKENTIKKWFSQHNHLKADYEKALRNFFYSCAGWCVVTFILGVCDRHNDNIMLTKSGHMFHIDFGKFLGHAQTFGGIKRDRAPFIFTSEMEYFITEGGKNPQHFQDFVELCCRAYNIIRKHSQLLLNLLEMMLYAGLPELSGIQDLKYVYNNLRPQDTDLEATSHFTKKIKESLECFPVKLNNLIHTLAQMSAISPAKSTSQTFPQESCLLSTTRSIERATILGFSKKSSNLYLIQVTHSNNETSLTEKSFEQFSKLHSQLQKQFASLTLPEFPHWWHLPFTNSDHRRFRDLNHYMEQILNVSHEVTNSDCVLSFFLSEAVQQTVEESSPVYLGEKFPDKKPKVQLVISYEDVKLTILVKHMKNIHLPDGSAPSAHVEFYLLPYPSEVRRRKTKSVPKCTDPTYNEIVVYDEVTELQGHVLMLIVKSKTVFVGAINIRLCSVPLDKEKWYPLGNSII
In words: Selectivity interaction (KinomeScan (DiscoverX)) EUB0000045b PIK3C2G.

The target in experiment [5] is Macrophage colony-stimulating factor 1 receptor (Homo sapiens) (UniProt P07333). In words: Selectivity interaction (ProQinase) EUB0000171b CSF1R.
Sequence of Macrophage colony-stimulating factor 1 receptor (Homo sapiens) (P07333 whole entry): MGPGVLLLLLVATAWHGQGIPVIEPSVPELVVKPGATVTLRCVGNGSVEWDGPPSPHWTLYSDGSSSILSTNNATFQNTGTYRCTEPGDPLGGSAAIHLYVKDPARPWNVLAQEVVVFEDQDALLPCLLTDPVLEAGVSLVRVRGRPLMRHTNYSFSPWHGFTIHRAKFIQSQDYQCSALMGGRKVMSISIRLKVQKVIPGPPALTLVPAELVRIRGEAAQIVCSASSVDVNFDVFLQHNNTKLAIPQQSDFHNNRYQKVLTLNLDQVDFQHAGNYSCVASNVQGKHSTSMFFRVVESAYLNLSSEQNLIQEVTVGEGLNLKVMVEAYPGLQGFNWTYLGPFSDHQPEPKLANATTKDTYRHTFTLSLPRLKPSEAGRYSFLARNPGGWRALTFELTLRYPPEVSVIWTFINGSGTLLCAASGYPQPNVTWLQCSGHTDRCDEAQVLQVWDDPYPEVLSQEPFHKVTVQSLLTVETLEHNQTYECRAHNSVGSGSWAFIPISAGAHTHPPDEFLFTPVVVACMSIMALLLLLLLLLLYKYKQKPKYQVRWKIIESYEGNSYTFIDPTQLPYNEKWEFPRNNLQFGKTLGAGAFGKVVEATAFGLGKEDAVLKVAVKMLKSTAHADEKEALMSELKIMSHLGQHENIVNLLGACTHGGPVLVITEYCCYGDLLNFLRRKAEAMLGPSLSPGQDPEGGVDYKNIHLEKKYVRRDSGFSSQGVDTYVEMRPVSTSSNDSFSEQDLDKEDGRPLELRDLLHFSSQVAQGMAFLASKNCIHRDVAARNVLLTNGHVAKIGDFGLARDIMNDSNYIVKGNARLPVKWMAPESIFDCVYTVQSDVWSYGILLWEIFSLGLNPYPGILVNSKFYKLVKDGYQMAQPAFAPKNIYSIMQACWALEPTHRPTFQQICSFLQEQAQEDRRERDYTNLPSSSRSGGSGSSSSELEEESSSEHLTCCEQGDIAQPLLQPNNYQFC

Among the data in ChEMBL document CHEMBL5465560, “Selectivity Literature for EUbOPEN Chemogenomic Library” (2024) are % of control values, retold here.

SMILES strings stand for the structures.

Sequence of Ribosomal protein S6 kinase alpha-1 (Q15418 whole entry): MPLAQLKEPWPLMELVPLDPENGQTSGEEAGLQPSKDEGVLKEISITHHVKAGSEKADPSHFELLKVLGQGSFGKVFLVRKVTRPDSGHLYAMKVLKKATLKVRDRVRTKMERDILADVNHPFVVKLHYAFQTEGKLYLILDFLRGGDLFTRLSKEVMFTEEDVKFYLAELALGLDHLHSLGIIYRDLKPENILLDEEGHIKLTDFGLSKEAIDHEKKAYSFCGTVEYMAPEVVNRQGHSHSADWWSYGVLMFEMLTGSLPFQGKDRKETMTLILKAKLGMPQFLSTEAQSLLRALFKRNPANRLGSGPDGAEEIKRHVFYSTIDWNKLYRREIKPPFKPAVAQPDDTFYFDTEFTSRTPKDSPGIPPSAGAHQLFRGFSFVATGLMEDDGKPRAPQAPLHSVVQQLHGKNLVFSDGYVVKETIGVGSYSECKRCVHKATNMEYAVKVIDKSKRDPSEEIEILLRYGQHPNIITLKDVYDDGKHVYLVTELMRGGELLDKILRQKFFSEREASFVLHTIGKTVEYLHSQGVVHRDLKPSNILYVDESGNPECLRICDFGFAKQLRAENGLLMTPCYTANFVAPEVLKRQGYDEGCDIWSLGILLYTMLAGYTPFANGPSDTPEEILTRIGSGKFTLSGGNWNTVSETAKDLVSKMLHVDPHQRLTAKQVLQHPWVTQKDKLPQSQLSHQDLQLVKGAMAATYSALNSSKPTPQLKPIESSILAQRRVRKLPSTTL

`CCN(CC)CCCCNc1ncc2cc(-c3cc(OC)cc(OC)c3)c(NC(=O)NC(C)(C)C)nc2n1`: the % of control in experiment [1] was determined as 100%. In experiment [2], `CNC(=O)Nc1ccc(-c2nc(N3CC4CCC(C3)O4)c3cnn(C4CCC5(CC4)OCCO5)c3n2)cc1` returned a % of control of 82%.

Molecule `Cc1cc([C@@H](C)Nc2ccccc2C(=O)O)c2nc(N3CCOCC3)cc(=O)n2c1` [AZD-6482] gave a % of control in experiment [3] of 92%. Consider `C=CC(=O)Nc1cc(-n2c(=O)ccc3cnc4ccc(-c5ccc(NS(C)(=O)=O)cc5)cc4c32)ccc1C`, for which the results for the % of control in experiment [4] (at 1 µM) and in experiment [4] (at 10 µM) were 100% and 8.7%, respectively. As to `C=CC(=O)Nc1cccc(C(=O)Nc2ccc(Nc3cc(-c4[nH]c(SC)nc4C)ccn3)cc2)c1`, the % of control in experiment [5] (at 1 µM) came out at 106%; in experiment [5] (at 5 µM) it was 69%.
